ChEMBL document CHEMBL1201862, “PubChem BioAssay data set” (2004)
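Cells were grown in 96-well plates and exposed to each compound for 48 hours at five concentrations; endpoints were interpolated linearly between bracketing concentrations, or set to the highest concentration if not reached. GI50: concentration for 50% inhibition of growth.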 The source made the active and inactive calls. Rule as the data show it: active = GI50 up to about 1.1 µM and inactive = higher.

Experiments:
Experiment in all cases: NCI tumour cell line growth inhibition, 48 h
A549 = tested on: A549
CAKI-1 = tested on: CAKI-1
HCT-116 = tested on: HCT-116
HOP-92 = tested on: HOP-92
LOX IMVI = tested on: LOX IMVI
MOLT-4 = tested on: MOLT-4
Malme-3M = tested on: Malme-3M
NCI-H23 = tested on: NCI-H23
NCI-H522 = tested on: NCI-H522
PC-3 = tested on: PC-3
SK-OV-3 = tested on: SK-OV-3
SN12C = tested on: SN12C
T47D = tested on: T47D
U-251 = tested on: U-251
UACC-257 = tested on: UACC-257

Measured: GI50

O=C1N(Cc2ccccc2)C2CSCC2N1Cc1ccccc1 (stereo not given)
inactive: A549 40 µM | CAKI-1 30.8 µM | HCT-116 36.4 µM | HOP-92 23 µM | LOX IMVI 30.2 µM | MOLT-4 37.5 µM | Malme-3M 13.5 µM | NCI-H23 27.8 µM | NCI-H522 3.94 µM | PC-3 29.6 µM | SK-OV-3 27.4 µM | SN12C 33.7 µM | T47D 27.2 µM | U-251 35.3 µM | UACC-257 24.8 µM
